Data taken from ChEMBL document CHEMBL1131260, “Studies on selectin blockers. 6. Discovery of homologous fucose sugar unit necessary for E-selectin binding” (J Med Chem, 1998).

biological target: T1, E-selectin (Homo sapiens, UniProt P16581); assay: In vitro inhibitory activity against Selectin E-sialyl Lewis X (sLex) binding
T1 sequence (P16581 whole entry): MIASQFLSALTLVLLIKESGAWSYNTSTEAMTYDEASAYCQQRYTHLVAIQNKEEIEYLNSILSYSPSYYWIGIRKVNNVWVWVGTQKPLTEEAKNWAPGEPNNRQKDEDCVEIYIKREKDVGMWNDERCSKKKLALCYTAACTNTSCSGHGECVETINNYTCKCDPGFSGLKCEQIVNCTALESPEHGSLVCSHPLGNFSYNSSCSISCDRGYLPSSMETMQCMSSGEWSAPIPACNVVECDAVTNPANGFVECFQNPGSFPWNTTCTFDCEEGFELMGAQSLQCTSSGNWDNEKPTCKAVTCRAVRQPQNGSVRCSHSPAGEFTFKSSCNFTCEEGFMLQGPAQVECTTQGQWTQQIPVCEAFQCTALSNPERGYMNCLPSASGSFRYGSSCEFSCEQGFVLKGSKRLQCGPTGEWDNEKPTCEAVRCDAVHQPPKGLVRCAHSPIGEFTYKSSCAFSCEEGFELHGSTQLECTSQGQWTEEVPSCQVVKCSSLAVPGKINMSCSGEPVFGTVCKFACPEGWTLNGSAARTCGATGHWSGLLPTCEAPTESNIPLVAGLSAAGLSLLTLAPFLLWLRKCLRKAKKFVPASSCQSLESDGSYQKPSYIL

| IC50 [µM] | SMILES |
| --- | --- |
| 3.1 | CCCCCCCCCCCCCCC(CCCCCCCCCCCCCC)C(=O)N[C@@H](CO[C@@H]1O[C@H](C(C)O)[C@@H](O)[C@@H]1O)C(=O)N[C@H](CCC(=O)O)C(=O)NC (some centres undefined) |
| 4.3 | CCCCCCCCCCCCCCC(CCCCCCCCCCCCCC)C(=O)N[C@H](CO[C@@H]1O[C@H](C(C)O)[C@@H](O)[C@@H]1O)C(=O)N[C@@H](CCC(=O)O)C(=O)NC.N=C(N)NCCC[C@H](N)C=O (some centres undefined) |
| 13 | CCCCCCCCCCCCCCC(CCCCCCCCCCCCCC)C(=O)NC(COC1O[C@@H](O)[C@@H](O)[C@H](O)[C@@H]1O)C(=O)N[C@H](CCC(=O)O)C(=O)NC (single isomer, unassigned) |
| 1.5 | CCCCCCCCCCCCCCC(CCCCCCCCCCCCCC)C(=O)NC(CO[C@@H]1O[C@@H](O)[C@@H](O)[C@H](O)[C@@H]1O)C(=O)N[C@@H](CCC(=O)O)C(=O)NC (single isomer, unassigned) |
